From patent US6346539B1, “Treatment of skin conditions” (BTG International Limited, priority 1998, dated 2002)
Read-outs that look alike come from different tables or passages of the source.

Columns and labels:
mouse melan-a cells = experiment: Melanocyte proliferant activity of piperine derivatives, SRB assay, 4 days, 10% FBS; assay type: cell-based; conditions: for activity at 1 µM / activity at 10 µM / activity at 50 µM / activity at 100 µM / activity at 25 µM: Mus musculus, Melan-a, 96 h; for More active than piperine at higher conc. (μM)?: concentrations at which more active than piperine
Method: The plates were incubated at 37° C. in a 10% CO2, 90% air humidified atmosphere for the stated length of time. At the end of the incubation, an SRB assay was performed. Briefly, cells attached to the bottom of the plate were fixed by addition of cold trichloroacetic acid (TCA, 4° C., Aldrich, Dorset, UK) on the top of the growth medium (final TCA 20% w/v). The plate was placed at 4° C. for 1 hour before being gently washed five times with tap water. It was allowed to dry in air, or aided with a hair dryer to speed up the drying process, then 50 μl of 4% w/v SRB dissolved in 1% acetic acid in water was added to each well for 30 min. At the end of the staining period, unbound SRB was removed by washing 4 times with 1% acetic acid. The plate was air dried again, and 150 μl of 10 mM aqueous Tris base (Sigma-Aldrich Co. Ltd, Irvine, UK) was added into each well to solubilize the cell-bound dye.
Various piperine derivatives of formula (1) were synthesised and tested for melanocyte (mouse melan-a) proliferant activity in-vitro. Cells we re incubated with the test compound for 4 days, as previously for the mouse cells but with 10% FBS, after which the sulphorhodamine-B (SRB) assay was performed to determnine cell number SRB uptake was measured as optical density at 550 nm. The control assay was carried out on cells incubated without test compound. There were 2 or 3 series of experiments, each of which consisted of six replcate experiments.
Percentage cell growth was obtained with a given compound calculated as (optical density in the presence of the compound/control optical density)×100.
Melan-a cell proliferant activity for tested compounds was compared with that obtained with piperine. […] All figures are given with Standard Error of the Mean.

melan-a cells = experiment: Dendricity of melan-a cells by observation under microscope; assay type: cell-based, mouse; set-up: key: +++: highly dendritic; ++: moderately dendritic; +: weakly dendritic; −: no effect
Source text: Effect on dendricity of melan-a cells by the test compounds was by observation under microscope. Dendricity is relevant to vitiligo since normal skin melanocytes have dendrites, but in vitiligo the melanocytes seem to lose these before they disappear from the patches.

[1] = read-out: growth of melan-a cells as % of control, dose experiment
[2] = 10 μM, read-out: growth of melan-a cells as % of control, dose experiment
[3] = single concentration (10 μM), melan-a
[4] = single concentration (10 μM), melan-a, ± SEM, read-out: Percentage cell growth (Repeated experiments)

| Structure (SMILES) | activity at 1 µM (mouse melan-a cells; [1]) [%] | activity at 10 µM (mouse melan-a cells; [2]) [%] | activity at 50 µM (mouse melan-a cells; [1]) [%] | activity at 100 µM (mouse melan-a cells; [1]) [%] | Active at 10 μM? (mouse melan-a cells; overall summary, melan-a) | Stimulant activity (mouse melan-a cells; [3]) | Dentricity, dose experiment (melan-a cells; 1 μM) | Dentricity, dose experiment (melan-a cells; 10 μM) | Dentricity, dose experiment (melan-a cells; 50 μM) | Dendricity (melan-a cells; Table 7, 10 μM) | activity at 25 µM (mouse melan-a cells; [1]) [%] | More active than piperine at higher conc. (μM)? (mouse melan-a cells; overall summary) | Dentricity, dose experiment (melan-a cells; 100 μM) | activity at 10 µM (mouse melan-a cells; [4]) [%] | Dendricity (melan-a cells; Table 11, 10 μM) | Dendricity (melan-a cells; Table 8, 10 μM) | Relative activity to piperine (mouse melan-a cells; (A-100) compound/(A-100) piperine, 10 μM) | Active at higher conc. (μM)? (mouse melan-a cells; overall summary, concentrations at which active) |
| --- | --- | --- | --- | --- | --- | --- | --- | --- | --- | --- | --- | --- | --- | --- | --- | --- | --- | --- |
| O=C(/C=C/C=C/c1ccc2c(c1)OCO2)NCc1ccc2c(c1)OCO2 [RV-A04, 5-E,E-piperinoylpiperinolymine] | 101 ± 12 | 138 ± 10 | 150 ± 15 | 71 ± 9 | Yes^a | Non- significant here, but positive in dose response test | − | + | + | + |  |  |  |  |  |  |  |  |
| O=C(/C=C/C=C/c1ccc2c(c1)OCO2)N1CCOCC1 [RV-A02, 5-E,E-piperinoyl morpholine] | 125 ± 10 | 167 ± 17 | 168 ± 12 |  | Yes | Positive |  |  |  | +++ | 171 ± 8 |  |  |  |  |  |  |  |
| COc1cccc(/C=C/C(=O)N2CCCCC2)c1 [RV-G02, 1-(3-methoxy-cinnamoyl)piperidine] | 99 ± 5 | 95 ± 18 | 110 ± 11 | 127 ± 9 | No | Negative | − | − | − |  |  | No | − |  |  |  |  |  |
| CC(C)CNC(=O)/C=C/C=C/c1ccc2c(c1)OCO2 [RV-A06, Piperlonguminine] | 134 ± 7 | 188 ± 14 | 135 ± 24 |  | Yes | Positive |  |  |  | +++ | 172 ± 15 | No |  | 147 ± 66 |  |  |  |  |
| O=C(CCCCc1ccc2c(c1)OCO2)N1CCCCC1 [RV-C02, Tetrahydropiperine] | 134 ± 15 | 183 ± 33 | 175 ± 12 |  | Yes | Positive |  |  |  |  | 199 ± 31 | No |  |  | +++ |  |  |  |
| O=C(/C=C/c1ccc2c(c1)OCO2)N1CCCCC1 [RV-B01, 1-(3-trans-benzo-1,3-dioxol-5-ylacryloyl)piperidine] | 111 ± 6 | 147 ± 7 | 187 ± 8 |  | Yes | Positive |  |  |  |  | 187 ± 18 |  |  |  |  | ++ |  |  |
| CNC(=O)/C=C/C=C/c1ccc2c(c1)OCO2 [RV-A07, 5-E,E-piperinoylmethylamine] | 140 ± 12 | 170 ± 24 | 71 ± 5 | 46 ± 2 | Yes | Positive | ++ | ++ | + | ++ |  | No | + | 170 ± 24 |  |  | 0.6 | No |
